Test results from patent publication US20130295173A1, “COMPOSITIONS OF STATINS AND OMEGA-3 FATTY ACIDS” (OMTHERA PHARMACEUTICALS, INC., priority 2012, published 2013).
Values belong to the compound of their own block, whether it stands above or below them.

What was measured:
[1] = Stability testing of statins dissolved in PUFA free acid solvent system; assay type: physicochemical; details: 25° C., 60% RH; for Statin in Oil: PUFA free acid solvent system; for Statin in Oil, Percent: share of total statin
Protocol: The compositions were then mixed until full dissolution was observed, using a magnetic stir bar and sonication for 30-60 second intervals, taking care to maintain a nitrogen headspace over the solution throughout processing. […] Vials were covered with foil to protect from light and stored at 25° C., 60% RH. One vial of each of the three compositions was retrieved at each timepoint for testing. Procedures as listed in the USP Monograph for Omega-3-Acid Ethyl Ester Capsules were followed for measuring quantities of acid value, peroxide value, and absorbance for fats and fixed oils.

[2] = Comparison of solubility of statins in PUFA free acid solvent system and Lovaza ethyl ester solvent system, HPLC assay of supernatant
Protocol: For this study, ten vials were prepared such that 5 vials contained 2 mL of Lovaza oil and 5 vials contained 2 mL of PUFA free acid solvent system. About 20 mg of each statin were added to one Lovaza oil vial and to one PUFA free acid solvent system vial. Vials containing the samples were blanketed with nitrogen, then sealed. The vials were then sonicated for 1 hour or until contents appeared clear. After sonication, vials which remained clear received additional 20 mg aliquots of their respective statin and were again blanketed with nitrogen. […] The samples were centrifuged and the supernatant was assayed for the respective statin by HPLC.

[3] = Solubility of statins in various pH buffers
[4] = Initial solubility of statins in PUFA free acid solvent system (batch #37225); assay type: physicochemical

- Statin in Oil ([1]; t = 0): 8.738 mg/g
- Statin in Oil, Percent ([1]; t = 0): 100%
- Statin in Oil ([1]; t = 1 week): 8.275 mg/g
- Statin in Oil, Percent ([1]; t = 1 week): 100%
- Statin in Oil ([1]; t = 2 week): 7.839 mg/g
- Statin in Oil, Percent ([1]; t = 2 week): 100%
Structure (SMILES): CC(C)c1c(C(=O)Nc2ccccc2)c(-c2ccccc2)c(-c2ccc(F)cc2)n1CC[C@@H](O)C[C@@H](O)CC(=O)[O-].CC(C)c1c(C(=O)Nc2ccccc2)c(-c2ccccc2)c(-c2ccc(F)cc2)n1CC[C@@H](O)C[C@@H](O)CC(=O)[O-].[Ca+2] [Atorvastatin Calcium, atorvastatin calcium]

- Solubility in Lovaza (ethyl ester) Solvent System [2]: 0.615 mg/g
- Solubility in PUFA Free Acid Solvent System [2]: 12.771 mg/g
Structure (SMILES): O=C([O-])C[C@H](O)C[C@H](O)/C=C/c1c(C2CC2)nc2ccccc2c1-c1ccc(F)cc1.O=C([O-])C[C@H](O)C[C@H](O)/C=C/c1c(C2CC2)nc2ccccc2c1-c1ccc(F)cc1.[Ca+2] [Pitavastatin Calcium, pitavastatin calcium]

- Solubility in Lovaza (ethyl ester) Solvent System [2]: 0.000 mg/g
- Solubility in PUFA Free Acid Solvent System [2]: 42.357 mg/g
- Appearance of vial after sonication ([2]; PUFA free acid solvent, 2 mL, after the addition of about 313 mg): still remained clear
Structure (SMILES): CC[C@H](C)C(=O)O[C@H]1C[C@H](O)C=C2C=C[C@H](C)[C@H](CC[C@@H](O)C[C@@H](O)CC(=O)O)[C@H]21 [Pravastatin Sodium, pravastatin sodium]

- Solubility ([3]; 0.1N HCl (pH 1.2), T = 0): 0.223
- Solubility ([3]; 0.1N HCl (pH 1.2), T = 1 Week): 0.104
- Solubility ([3]; 0.1N NaOH, T = 0): 8.058
- Solubility ([3]; 0.1N NaOH, T = 1 Week): 0.018
- Solubility ([3]; Water, T = 0 (after sitting overnight)): 7.08
- Solubility ([3]; Water, T = 1 Week): 8.822
- pH of maximal solubility ([3]; aqueous pH buffers): ~7.0
- Aqueous solubility (in words) ([3]; overall across aqueous solutions, rosuvastatin at time zero): significant aqueous solubility
- Solubility ([3]; pH 2.2 acid phthalate buffer, T = 0): 0.773
- Solubility ([3]; pH 2.2 acid phthalate buffer, T = 1 Week): 9.343
- Solubility ([3]; pH 4.0 acid phthalate buffer, T = 0): 1.901
- Solubility ([3]; pH 4.0 acid phthalate buffer, T = 1 Week): 0.002
- Solubility ([3]; pH 5.0 neutralized phthalate buffer, T = 0): 4.188
- Solubility ([3]; pH 5.0 neutralized phthalate buffer, T = 1 Week): 4.790
- Solubility ([3]; pH 7.0 phosphate buffer, T = 0): 7.963
- Solubility ([3]; pH 7.0 phosphate buffer, T = 1 Week): 10.654
- Solubility ([3]; pH 9.0 alkaline borate buffer, T = 0): 4.571
- Solubility ([3]; pH 9.0 alkaline borate buffer, T = 1 Week): 4.712
- Statin in Oil ([1]; t = 0): 6.481 mg/g
- Statin in Oil, Percent ([1]; t = 0): 100%
- Statin in Oil ([1]; t = 1 week): 6.416 mg/g
- Statin in Oil, Percent ([1]; t = 1 week): 100%
- Statin in Oil ([1]; t = 2 week): 6.505 mg/g
- Statin in Oil, Percent ([1]; t = 2 week): 100%
- Solubility in Lovaza (ethyl ester) Solvent System [2]: 0.001 mg/g
- Solubility in PUFA Free Acid Solvent System [2]: 12.700 mg/g
- Initial solubility in PUFA free acid solvent system, Concentration [4]: 12.70 mg/mL
Structure (SMILES): CC(C)c1nc(N(C)S(C)(=O)=O)nc(-c2ccc(F)cc2)c1/C=C/[C@@H](O)C[C@@H](O)CC(=O)[O-].CC(C)c1nc(N(C)S(C)(=O)=O)nc(-c2ccc(F)cc2)c1/C=C/[C@@H](O)C[C@@H](O)CC(=O)[O-].[Ca+2] [Rosuvastatin Calcium, rosuvastatin calcium]
